Measured values as given in patent US20180327367A1, “MACROCYCLIC BROAD SPECTRUM ANTIBIOTICS” (priority 2015, published 2018).
In brackets after ≈: the same amount, converted by molar mass. Read-outs that look alike come from different tables or passages of the source.

Key:
[1] = target: T1, SpsB (Staphylococcus aureus signal peptidase) (Staphylococcus aureus, UniProt P0A070); assay: cell-based; type: biochemical; conditions: SpsB IC50, whole-cell S. aureus (USA300 background, overexpressing SpsB) as SpsB source; fluorogenic peptide substrate, kinetic read 30 min
T1 construct: This assay uses a suspension of Staphylococcus aureus cells as a source of SpsB instead of recombinant SpsB protein; endogenous in cells; host or cells: S. aureus, USA300 background, overexpressing SpsB (whole-cell suspension from frozen pellets)
Method in brief: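 Whole S. aureus cells (USA300, overexpressing SpsB) in PBS with MgCl2, CaCl2 and 0.1% Tween-80 served as enzyme source, mixed with 20 μM stock of (Dabcyl)βAla-KPAKAAE(Edans) substrate before use. Fluorescence (ex 340/em 490 nm) read kinetically over 30 min. IC50 from reaction rate versus 11-point inhibitor concentration.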

[2] = system: Methicillin Resistant Staphylococcus aureus strain USA 300, NRS384; assay: Minimum inhibitory concentration, broth micro-dilution (CLSI), S. aureus; type: cell-based; conditions: Staphylococcus aureus, MRSA / NRS 384 / USA300, 22 h, 35° C., 22 hours
Method in brief: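 Colonies grown 20 hours at 35° C were suspended in cation-adjusted Mueller Hinton Broth with 0.002% Tween-80. Cells were then added to 2-fold compound dilutions starting at 4 or 0.5 μg/mL, at OD600 0.0005.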

[3] = system: Escherichia coli ATCC 25922; assay: Minimum inhibitory concentration, broth micro-dilution (CLSI), E. coli; type: cell-based; conditions: Escherichia coli, ATCC25922, 22 h, 35° C., 22 hours
[4] = system: Escherichia coli MC4100 harboring the IMP4213 (E. coli IMP); assay: microbe, parasite or virus in culture; type: cell-based; conditions: Escherichia coli, 22 h, read-out: MIC (μg/mL) E. coli IMP, E. coli MC4100 IMP4213, increased outer-membrane permeability; 35° C., 22 hours
Method in brief: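 Broth micro-dilution per CLSI in cation-adjusted Mueller Hinton Broth with 0.002% Tween-80; E. coli MC4100 carries IMP4213, raising outer-membrane permeability. Compounds tested as 2-fold serial dilutions (10 concentrations) from 4 μg/mL (protocol 2) or 0.5 μg/mL (protocol 3); inoculum OD600 0.0005, 35° C for 22 hours.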

[5] = MRSA USA 300 NRS384, read-out: MIC (μg/mL) S. aureus
[6] = E. coli ATCC 25922, read-out: MIC (μg/mL) E. coli
[7] = read-out: MIC (μg/mL) S. aureus, MRSA USA 300 NRS384
[8] = read-out: MIC (μg/mL) E. coli, E. coli ATCC 25922

T1 sequence (P0A070 whole entry): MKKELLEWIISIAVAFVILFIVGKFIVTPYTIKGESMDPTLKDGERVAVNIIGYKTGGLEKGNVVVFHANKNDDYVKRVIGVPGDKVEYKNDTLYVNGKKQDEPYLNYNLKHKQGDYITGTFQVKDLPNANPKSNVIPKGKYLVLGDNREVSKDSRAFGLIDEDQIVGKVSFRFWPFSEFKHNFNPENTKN

Compound	IC50 [1]	MIC [2, 5]	MIC [3, 6]	MIC [4]	MIC [2, 7]	MIC [3, 8]
CCCCCCCCCC(=O)N[C@@H](CC(N)=O)C(=O)N(C)[C@@H]1C(=O)N[C@@H](C)C(=O)N[C@H](C(=O)NCC#N)Cc2ccc(OCCN)c(c2)-c2cc1ccc2OCCN [Compound 236]	1.5 nM	1 µg/mL (≈ 1.24 µM)	> 64 µg/mL	1.5 µg/mL (≈ 1.86 µM)	–	–
CCCCCCCCCCCCCC(=O)N[C@@H](CC)C(=O)N(C)[C@@H]1C(=O)N[C@@H](C)C(=O)N[C@H](C(=O)NCC#N)Cc2ccc(OCCN)c(c2)-c2cc1ccc2OCCN [Compound 465]	1.6 nM	0.094 µg/mL (≈ 0.113 µM)	4 µg/mL (≈ 4.8 µM)	0.19 µg/mL (≈ 0.228 µM)	–	–
CCCCCCCCCCCCC(=O)N[C@@H](CCN)C(=O)N(C)[C@@H]1C(=O)N[C@@H](C)C(=O)N[C@H](C(=O)NCC#N)Cc2ccc(OCCN)c(c2)-c2cc1ccc2OCCN [Compound 102]	0.52 nM	0.023 µg/mL (≈ 0.0276 µM)	0.25 µg/mL (≈ 0.3 µM)	0.0078 µg/mL (≈ 0.00935 µM)	–	–
CCCCCCCCCCCCCC(=O)N[C@@H](CCN)C(=O)N(C)[C@@H]1C(=O)N[C@@H](C)C(=O)N[C@H](C(=O)NCC#N)Cc2ccc(OCCN)c(c2)-c2cc1ccc2OCCN [Compound 337]	< 0.5 nM	0.031 µg/mL (≈ 0.0366 µM)	0.25 µg/mL (≈ 0.295 µM)	0.016 µg/mL (≈ 0.0189 µM)	–	–
Cc1cc(C(C)(C)C)ccc1C(=O)N[C@@H](CCN)C(=O)N(C)[C@@H]1C(=O)N[C@@H](C)C(=O)N[C@H](C(=O)NCC#N)Cc2ccc(OCCN)c(c2)-c2cc1ccc2OCCN [Compound 266]	2.1 nM	0.5 µg/mL (≈ 0.616 µM)	3.5 µg/mL (≈ 4.31 µM)	0.083 µg/mL (≈ 0.102 µM)	–	–
CCCCCCCCc1cc(C)c(C(=O)N[C@@H](CCN)C(=O)N(C)[C@@H]2C(=O)N[C@@H](C)C(=O)N[C@H](C(=O)NCC#N)Cc3ccc(OCCN)c(c3)-c3cc2ccc3OCCN)s1 [Compound 438]	0.78 nM	0.063 µg/mL (≈ 0.0721 µM)	0.38 µg/mL (≈ 0.435 µM)	0.031 µg/mL (≈ 0.0355 µM)	–	–
CCCCCCCCCC(=O)NCCC(=O)N(C)[C@@H]1C(=O)N[C@@H](C)C(=O)N[C@H](C(=O)NCC#N)Cc2ccc(OCCN)c(c2)-c2cc1ccc2OCCN [Compound 464]	6 nM	1 µg/mL (≈ 1.31 µM)	> 64 µg/mL	> 4 µg/mL	–	–
C[C@@H]1NC(=O)[C@@H](N(C)C(=O)[C@H](CCN)NC(=O)c2ccc(C#Cc3ccccc3)cc2F)c2ccc(OCCN)c(c2)-c2cc(ccc2OCCN)C[C@@H](C(=O)NCC#N)NC1=O [Compound 423]	0.85 nM	–	–	0.014 µg/mL (≈ 0.0163 µM)	0.063 µg/mL (≈ 0.0733 µM)	0.44 µg/mL (≈ 0.512 µM)
CCCCCCCOc1ccc(C(=O)N[C@@H](CCN)C(=O)N(C)[C@@H]2C(=O)N[C@@H](C)C(=O)N[C@H](C(=O)NCC#N)Cc3ccc(OCCN)c(c3)-c3cc2ccc3OCCN)c(C(F)(F)F)c1 [Compound 273]	0.6 nM	0.031 µg/mL (≈ 0.0335 µM)	0.5 µg/mL (≈ 0.541 µM)	0.016 µg/mL (≈ 0.0173 µM)	–	–
CCCCCCSc1ccc(C(=O)N[C@@H](CCN)C(=O)N(C)[C@@H]2C(=O)N[C@@H](C)C(=O)N[C@H](C(=O)NCC#N)Cc3ccc(OCCN)c(c3)-c3cc2ccc3OCCN)c(C)c1 [Compound 391]	0.99 nM	0.047 µg/mL (≈ 0.0539 µM)	0.5 µg/mL (≈ 0.573 µM)	0.016 µg/mL (≈ 0.0183 µM)	–	–
CCCCCCCCCCCC(=O)N[C@@H](CC#N)C(=O)N(C)[C@@H]1C(=O)N[C@@H](C)C(=O)N[C@H](C(=O)NCC#N)Cc2ccc(OCCN)c(c2)-c2cc1ccc2OCCN [Compound 453]	2.3 nM	–	–	0.13 µg/mL (≈ 0.159 µM)	0.13 µg/mL (≈ 0.159 µM)	16 µg/mL (≈ 19.6 µM)
C[C@@H]1NC(=O)[C@@H](N(C)C(=O)[C@H](CCCCN)NC(=O)c2ccc(-c3ccc(Cl)cc3)cc2)c2ccc(OCC(O)CN)c(c2)-c2cc(ccc2O)C[C@@H](C(=O)NCC#N)NC1=O (mixture of isomers) [Compound 514]	2 nM	–	–	0.19 µg/mL	0.25 µg/mL	32 µg/mL
CCCCCCc1ccc(C(=O)N[C@@H](CCCCN)C(=O)N(C)[C@@H]2C(=O)N[C@@H](C)C(=O)N[C@H](C(=O)NCC#N)Cc3ccc(OCCN)c(c3)-c3cc2ccc3OCCN)c(C)c1 [Compound 199]	0.73 nM	0.031 µg/mL (≈ 0.0357 µM)	3 µg/mL (≈ 3.46 µM)	0.031 µg/mL (≈ 0.0357 µM)	–	–
